Where “and” joins values, the source holds several entries; their conditions need not be identical. Equal values may be shown once.

One assay deals with B103-APP cells. Briefly: APP processing and Aβ production, B103-APP cells. It counts as cell-based, rat. To be noted: lipid-free apoE, 7.5 μg/ml, 24 h, compared to medium alone. As to the method: Aβ production assay. Stable neuroblastoma B103 cell lines transfected with a wildtype hAPP cDNA construct (B 103-APP) were selected by growing them in Dulbecco's modified Eagle's medium (DMEM) containing 10% fetal calf serum (FBS) and 400 μg/ml G418. A cell line expressing APP at similar levels in mouse brains has been identified by RNase protection assay (RPA) and was used in the studies described below. To determine Aβ production, B103-APP cells were incubated with serum-free minimal essential medium (MEM) containing N2 supplements with or without apoE isoforms for 24 h at 37° C. After incubation, 50 μl of medium was collected and assayed for Aβ levels with an ELISA method. The cells were lysed, and cellular proteins were determined by the Lowry method. AP production was normalized to cellular protein.
Cell Culture. Rat neuroblastoma B103 cells stably expressing human wildtype APP (hAPP695wt) (Xu et al. ((1999) Proc. Natl. Acad. Sci. USA 96:7547-7552; Esposito, et al. (2004) J. Neurochem. 91:1260-1274) were generated in Dr. Lennart Mucke's laboratory at the Gladstone Institute of Neurological Disease and maintained in Dulbecco's modified Eagle's medium (DMEM) (GIBCO, Grand Island, N.Y.) containing 400 μg/ml G418, 10% fetal bovine serum, and 5% horse serum at 37° C. Twenty-four hours after plating into 48-well plates (1×10^5 cells per well), cells were washed twice with serum-free DMEM and cultured for another 24 h in DMEM containing 1% N-2 supplement (GIBCO) to induce differentiation. The cells were treated with either β-VLDL (25 μg/ml cholesterol), recombinant human apoE isoform-enriched β-VLDL (7.5 μg/ml apoE and 25 μg/ml cholesterol), or recombinant human apoE (7.5 μg/ml apoE) in fresh DMEM containing 1% N-2 supplement for an additional 24 h. In some experiments, RAP (25 nM or 1 μM) was added to the cells 1 h before apoE treatment.
In some experiments, cells were treated with lovastatin, as described but with a minor modification. Fassbender et al. (2001) Proc. Natl. Acad. Sci. USA 98:5856-5861. Briefly, cells were maintained in differentiation medium containing 4 μM lovastatin and 0.25 mM mevalonate for 24 h. After treatment for 5 min with 5 mM methyl-β-cyclodextrin, which depletes cell membrane cholesterol (Bodovitz and Klein (1996) J. Biol. Chem. 271:4436-4440; Kojro et al. (2001) Proc. Natl. Acad. Sci. USA 98:5815-5820), the cells were incubated in fresh differentiation medium containing lovastatin and mevalonate for 24 h. The conditioned medium was collected, and cellular cholesterol extracted with chloroform/methanol (Huang et al. (1994) Proc. Natl. Acad. Sci. USA 91:1834-1838) and quantitated with a kit from Abbott Laboratories (Abbott Park, Ill.).
Detection of sAPPα. Media conditioned for 24 hours were normalized by protein content and subjected to SDS/PAGE. Proteins were then transferred onto nitrocellulose membranes. The sAPPα was detected by mAb 6E10 and visualized with an enhanced chemiluminescence system (Pierce, Rockford, Ill.).
Aβ Assay. Aβ secreted into the medium was detected with a sandwich enzyme-linked immunosorbent assay (ELISA), using mAb 266 as a capturing antibody and 3D6 as a detecting antibody, as described. Johnson-Wood et al. ((1997) Proc. Natl. Acad. Sci. USA 94:1550-1555). Aβ was quantified from a standard curve (Aβ42; Bachem, Torrance, Calif.) and normalized by total cellular protein.

Another assay concerns B103-neo cells. As to the kind of experiment: Cell association and degradation of 125I-Aβ40 by B103-neo cells. The class given is cell-based, rat. To be noted: 125I-Aβ1-40 350 pg/ml with apoE, 24-h incubation. How it is done: Cell Association and Degradation of ^125I-Aβ40 by Neo-transfected B103 Cells. […] Culture medium was collected after 24 h, and the degradation products of ^125I-Aβ40 in the medium were assayed as described. Goldstein et al al. ((1983) Methods Enzymol. 98:241-250). The cells were washed five times on ice with phosphate-buffered saline (PBS) containing 0.2% bovine serum albumin and once with PBS and lysed by 0.1 N NaOH. The cell-associated ^125I-Aβ40 was determined by counting the radioactivity in the cell lysate.
The cell association and degradation of Aβ were measured after a 24-h incubation, as described in Methods, above.

In a further assay the test system is emulsion particles. As to the kind of experiment: Control emulsion binding assays without compounds. To be noted: n = 9; no compound. How it is done:
Preparation of emulsion particles. Triolein (160 mg) and L-alpha-Phosphatidylcholine (40 mg) are combined and dried under nitrogen. After the addition of 8 mls of buffer (10 mM Tris, 100 mM KCl, 1 mM EDTA, pH 8.0), the mixture is sonicated in a water bath to obtain a heterogeneous mix of emulsion particles. The particles are harvested by ultracentrifugation (TLA 100.2 rotor, 30,000 rpm for 30 minutes) and the subsequent lipid cake is removed by tube slicing and resuspended in 100 μt 20 mM Phosphate Buffer (PB). Triolein and phospholipid content are measured and total emulsion particle concentration is determined.
Radiolabelling Freshly denatured and renatured Apolipoprotein E3 and E4 are radiolabelled using Bolton-Hunter Reagent [^125I] (ICN). Specific Activity is determined using Lowry method and Gamma 8000 counter.
Binding Affinity Assay. […] In glass tubes, 25 μg of protein (with iodinated tracer) was reduced with 1% β-mercaptoethanol. Two hundred and fifty μg of emulsion particles and 2.5 μl of compound (10 mM stock) were added and the final mixture was brought up to 250 μl with 20 mM phosphate buffer (PB). The reaction mixture was then incubated in a 37° C. water bath for 2 hours before being transferred to 1.5 ml ultracentrifuge tubes. Finally, 50 μl of 60% sucrose was mixed with the sample and 400 μl 20 mM PB was carefully layered on top. Using a TLA 100.2 rotor, the tube was spun at 30,000 rpm for 30 minutes and subsequently cut to separate the floating emulsion particle layer from the free protein at the bottom of the tube. These fractions were then combined with the respective half of the actual tube and counted using a Gamma-8000.

For the substance “apoE4: human apolipoprotein E4 isoform, also iodinated”, the “increase of Aβ production” value in the assay on B103-APP cells is ~70% and ~60%. Moreover, in the assay with B103-neo cells, the “Cell association of 125I-Aβ1-40” value came to 14.7 ± 2.5 fmol/mg cell protein and the “Degradation of 125I-Aβ1-40” value is 80.8 ± 22.9 fmol/mg cell protein. In the assay on emulsion particles, this substance registered a Mean % bound of 59.4%, a Mean % free of 40.6%, a Median % bound of 60% and a Median % free of 40%. The Range % free in the assay on emulsion particles was 30-50%.

For “apoE3: human apolipoprotein E3 isoform, also iodinated”, in the assay on B103-APP cells, the “increase of Aβ production” value is listed as 30%. In the assay on B103-neo cells, the “Cell association of 125I-Aβ1-40” value is recorded as 10.8 ± 2.5 fmol/mg cell protein and the “Degradation of 125I-Aβ1-40” value came to 88.0 ± 6.7 fmol/mg cell protein. In the assay with emulsion particles, this substance came in with a Mean % bound of 29.8%, a Mean % free of 70.2%, a Median % bound of 33% and a Median % free of 67%. Further, in the assay on emulsion particles, the Range % bound was 20-39% and the Range % free is on record as 61-81%.

For the origin of these results see patent publication US7964598B2 (The J. David Gladstone Institutes, priority 1995, dated 2011).
